# System: 22RV1 cells
# Assay: Cell proliferation inhibition assay in 22RV1 cells (CellTiter-Glo, 7 days)
# Type: cell-based, human
# Conditions: Homo sapiens, 168 h
# Description: • 1. The human prostate cancer cell lines 22RV1 and LNCaP were purchased from ATCC. […] The cell concentration was adjusted to an appropriate concentration (determined based on the results of cell density optimization experiments), and the cells were seeded into a 96-well plate. A 100 µL cell suspension was added, resulting in 3000 cells per well. […] On the second day, for 22Rv1 cells, test compounds at different concentrations were added, and the cells were incubated at 37°C in a 5% CO2 incubator for 7 days; for LNCaP cells, test compounds at different concentrations were added first, and after 1 hour of treatment, 0.2 nM DHT was added. The cells were then incubated at 37°C in a 5% CO2 incubator for 7 days. • 4. After the incubation period, a volume of CellTiter-Glo detection reagent equal to the volume of the culture medium was added to each well. The plate was shaken and mixed thoroughly for 5 minutes, then incubated at room temperature for 10 minutes. Readings were taken using a PerkinElmer EnVision microplate reader. • 5.
# The IC50 curve was fitted and the IC50 value was calculated using the software GraphPad Prism 8 with the calculation formula XY-analysis/Nonlinear regression (curve fit)/Dose response-Inhibition/log (inhibitor) vs. response-Variable slope (four parameters).
row,SMILES,IC50 [µM]
1,CC(C)(c1ccc(-c2ccc(OCC3CC(CN4CC5(COC5)C4)C3)cc2)cc1)c1cc(Cl)c(OCCCl)c(C#N)c1 (stereo not shown) [Compound 196],0.86
2,CC(C)(c1ccc(-c2ccc(OCc3ccnc(N4CC5(C4)CC(F)(F)C5)n3)cc2)cc1)c1cc(Cl)c(OCCCl)c(C#N)c1 [Compound 198],0.53
3,CC(C)(c1ccc(-c2ccc(OCc3ccnc(N4CC5COCC5C4)n3)cc2)cc1)c1cc(Cl)c(OCCCl)c(C#N)c1 (stereo not shown) [Compound 199],1.01
4,CC(C)(c1ccc(-c2ccc(OCc3ccnc(N4CCN(S(C)(=O)=O)CC4)n3)cc2)cc1)c1cc(Cl)c(OCCCl)c(C#N)c1 [Compound 200],0.58
5,CC(C)(c1ccc(-c2ccc(OCc3ccnc(N4CC5(C4)CS(=O)(=O)C5)n3)nc2)cc1)c1cc(Cl)c(OCCCl)c(C#N)c1 [Compound 208],0.99
6,CC(C)(c1ccc(-c2ccc(OCc3ccnc(N=S4(=O)CCN(C5COC5)CC4)n3)cc2)cc1)c1cc(Cl)c(OCCCl)c(C#N)c1 [Compound 223],0.51
7,CC(C)(c1ccc(-c2ccc(OCc3cc(P(C)(C)=O)ccn3)cc2)cc1)c1cc(Cl)c(OCCCl)c(C#N)c1 [Compound 224],1.33
8,CC(C)(c1ccc(-c2ccc(OCC3CC(N4CC5(C4)CS(=O)(=O)C5)C3)cc2)cc1)c1cc(Cl)c(OCCCl)c(C#N)c1 (stereo not shown) [Compound 230],0.52
9,CC(C)(c1ccc(-c2ccc(/C=C/c3cnc(N4CC5(C4)CS(=O)(=O)C5)nc3)cc2)cc1)c1cc(Cl)c(OCCCl)c(C#N)c1 [Compound 235],0.61
10,CC(C)(c1ccc(-c2ccc(OCc3ccnc(N=S4(=O)CCN(CC(F)F)CC4)n3)cc2)cc1)c1cc(Cl)c(OCCCl)c(C#N)c1 [Compound 239],1.01
11,CC(C)(c1ccc(-c2ccc(C#Cc3ccnc(N=S4(=O)CCCC4)n3)cc2)cc1)c1cnc2c(cnn2CCCl)c1 [Compound 240],0.65
12,CC(C)(c1ccc(-c2ccc(OCc3ccnc(N=S4(=O)CCN(CCC(F)(F)F)CC4)n3)cc2)cc1)c1cc(Cl)c(OCCCl)c(C#N)c1 [Compound 241],0.79
13,CC(C)(c1ccc(-c2ccc(OCc3ccnc(N=S4(=O)CCN(C5CC5)CC4)n3)cn2)cc1)c1cc(Cl)c(OCCCl)c(C#N)c1 [Compound 250],0.86
14,CC(C)(c1ccc(-c2ccc(OCc3ccnc(N=S4(=O)CCN(CC(O)C(F)(F)F)CC4)n3)cc2)cc1)c1cc(Cl)c(OCCCl)c(C#N)c1 (stereo not shown) [Compound 252],0.72
15,CNC(=O)CN1CCS(=O)(=Nc2nccc(COc3ccc(-c4ccc(C(C)(C)c5cc(Cl)c(OCCCl)c(C#N)c5)cc4)cc3)n2)CC1 [Compound 255],0.56
16,CC(C)(c1ccc(-c2ccc(OCc3ccnc(N=S4(=O)CCN(CC(F)(F)F)CC4)n3)nc2)cc1)c1cc(Cl)c(OCCCl)c(C#N)c1 [Compound 261],0.83
17,CC(C)(c1ccc(-c2ccc(OCc3ccnc(N4CCCS4(=O)=O)n3)cc2)cc1)c1cc(Cl)c(OCCCl)c(C#N)c1 [Compound 265],0.54
18,CC(C)(c1ccc(-c2ccc(OCc3ccnc(N4CCC(S(C)(=O)=O)C4)n3)cc2)cc1)c1cc(Cl)c(OCCCl)c(C#N)c1 (stereo not shown) [Compound 266],0.77
19,CC(C)(c1ccc(-c2ccc(Oc3ccc(-c4cnc(P(C)(C)=O)nc4)cc3)cc2)cc1)c1cc(Cl)c(OCCCl)c(C#N)c1 [Compound 270],0.89
20,CC(C)(c1ccc(-c2ccc(OCc3ccc(-c4cnc(P(C)(C)=O)nc4)cc3)nc2)cc1)c1cc(Cl)c(OCCCl)c(C#N)c1 [Compound 277],1.31
21,CC(C)(c1ccc(-c2ccc(OCc3ccnc(P(C)(C)=O)n3)cc2)cc1)c1cc(F)c2c(cnn2CCCl)c1 [Compound 280],1.27
22,Cn1ncc2c1CCS(=O)(=Nc1nccc(COc3ccc(-c4ccc(C(C)(C)c5cc(Cl)c(OCCCl)c(C#N)c5)cc4)cc3)n1)C2 (stereo not shown) [Compound 281],0.5
23,CC(C)(c1ccc(-c2ccc(C#Cc3ncc(P(C)(C)=O)cn3)cc2)cc1)c1cc(Cl)c(OCCCl)c(C#N)c1 [Compound 282],0.82
24,CC(C)(c1ccc(-c2ccc(OCc3ccnc(N=S4(=O)CCN(C[C@@H](O)C(F)(F)F)CC4)n3)cc2)cc1)c1cc(Cl)c(OCCCl)c(C#N)c1 [Compound 286],0.7
25,CC(C)(c1ccc(-c2ccc(OCc3ccnc(N=S4(=O)CCN(C[C@H](O)C(F)(F)F)CC4)n3)cc2)cc1)c1cc(Cl)c(OCCCl)c(C#N)c1 [Compound 287],0.67
26,CC(C)(c1ccc(-c2ccc(/C=C/c3ccnc(N=S4(=O)CCOCC4)n3)cc2)cc1)c1cc(Cl)c(OCCCl)c(C#N)c1 [Compound 294],0.82
27,CC(C)(c1ccc(-c2ccc(OCC3CC(CN4CCS(=O)(=O)CC4)C3)cc2)cc1)c1cc(Cl)c(OCCCl)c(C#N)c1 (stereo not shown) [Compound 296],0.48
28,CC(C)(c1ccc(-c2ccc(OCCN3CC4(C3)CS(=O)(=O)C4)cc2)cc1)c1cc(Cl)c(OCCCl)c(C#N)c1 [Compound 299],0.97

# These reach a lower IC50. Values come first.
row,IC50 [µM],SMILES
1,0.19,CC(C)(c1ccc(-c2ccc(OCc3ccnc(OC4CC5(COC5)C4)n3)cc2)cc1)c1cc(Cl)c(OCCCl)c(C#N)c1 [Compound 201]
2,0.43,CC(C)(c1ccc(-c2ccc(OCCOc3nccc(N=S4(=O)CCOCC4)n3)cc2)cc1)c1cc(Cl)c(OCCCl)c(C#N)c1 [Compound 205]
3,0.23,CC(C)(c1ccc(-c2ccc(OCc3ccnc(N4CCC(S(C)(=O)=O)CC4)n3)nc2)cc1)c1cc(Cl)c(OCCCl)c(C#N)c1 [Compound 210]
4,0.39,CC(C)(c1ccc(-c2ccc(OCc3ccnc(N=S4(=O)CCNCC4)n3)nc2)cc1)c1cc(Cl)c(OCCCl)c(C#N)c1 [Compound 211]
5,0.44,CC(C)(c1ccc(-c2ccc(OCC3CN(C4CCOCC4)C3)cc2)cc1)c1cc(Cl)c(OCCCl)c(C#N)c1 [Compound 212]
6,0.43,CC(C)(c1ccc(-c2ccc(OCc3ccnc(N=S4(=O)CCN(CC(F)(F)F)CC4)n3)cc2)cc1)c1cc(Cl)c(OCCCl)c(C#N)c1 [Compound 217]
7,0.37,CC(=O)N1CCS(=O)(=Nc2nccc(COc3ccc(-c4ccc(C(C)(C)c5cc(Cl)c(OCCCl)c(C#N)c5)cc4)cc3)n2)CC1 [Compound 218]
8,0.21,CC(C)(c1ccc(-c2ccc(OCc3ccnc(N=S4(=O)CCN(C(=O)C5CC5)CC4)n3)cc2)cc1)c1cc(Cl)c(OCCCl)c(C#N)c1 [Compound 219]
9,0.17,CC(C)(c1ccc(-c2ccc(OCc3ccnc(N=S4(=O)CCN(S(C)(=O)=O)CC4)n3)cc2)cc1)c1cc(Cl)c(OCCCl)c(C#N)c1 [Compound 220]
10,0.17,CC(C)(c1ccc(-c2ccc(Oc3ccc(-c4ccnc(P(C)(C)=O)n4)cc3)cc2)cc1)c1cc(Cl)c(OCCCl)c(C#N)c1 [Compound 267]
11,0.39,CC(C)(c1ccc(-c2ccc(/C=C\c3cnc(P(C)(C)=O)nc3)c(C#N)c2)cc1)c1cc(Cl)c(OCCCl)c(C#N)c1 [Compound 269]
12,0.13,CC(C)(c1ccc(-c2cnc(OCc3ccc(-c4cnc(P(C)(C)=O)nc4)cc3)nc2)cc1)c1cc(Cl)c(OCCCl)c(C#N)c1 [Compound 274]
13,0.46,CC(C)(c1ccc(-c2ccc(OCc3ccc(-c4cnc(P(C)(C)=O)nc4)cc3)cn2)cc1)c1cc(Cl)c(OCCCl)c(C#N)c1 [Compound 275]
14,0.21,CC(C)(c1ccc(-c2ccc(OCc3ccnc(N=S4(=O)CCN(CC(O)CC(F)(F)F)CC4)n3)cc2)cc1)c1cc(Cl)c(OCCCl)c(C#N)c1 (stereo not shown) [Compound 285]
15,0.074,CC(C)(c1ccc(-c2ccc(/C=C/c3cnc(N=S4(=O)CCOCC4)nc3)cc2)cc1)c1cc(Cl)c(OCCCl)c(C#N)c1 [Compound 293]

# Source: patent EP4778922A1, “BICYCLIC COMPOUND, AND PREPARATION METHOD THEREFOR AND PHARMACEUTICAL USE THEREOF” (Shanghai Jeyou Pharmaceutical Co., Ltd., priority 2023, dated 2025)
